Reference: patent US10544147B2, “Purine inhibitors of human phosphatidylinositol 3-kinase delta” (MERCK SHARP & DOHME CORP., priority 2016, dated 2020)
pIC50: −log10 of the molar value.

Key:
PI3Kalpha = PI3Kalpha (Homo sapiens (Human), UniProt P42336); test: HTRF PI3K biochemical assay, alpha isoform (selectivity versus delta); conditions: ratio PI3K-alpha IC50 value/PI3K-delta IC50 value
PI3Kdelta = PI3Kdelta (Homo sapiens (Human), UniProt O00329); test: HTRF PI3K biochemical assay, delta isoform; conditions: 0.3 nM enzyme, 100 uM ATP, 50 uM PIP2; form screened (neutral or TFA salt)
Chain of PI3Kdelta (O00329 whole entry, canonical isoform): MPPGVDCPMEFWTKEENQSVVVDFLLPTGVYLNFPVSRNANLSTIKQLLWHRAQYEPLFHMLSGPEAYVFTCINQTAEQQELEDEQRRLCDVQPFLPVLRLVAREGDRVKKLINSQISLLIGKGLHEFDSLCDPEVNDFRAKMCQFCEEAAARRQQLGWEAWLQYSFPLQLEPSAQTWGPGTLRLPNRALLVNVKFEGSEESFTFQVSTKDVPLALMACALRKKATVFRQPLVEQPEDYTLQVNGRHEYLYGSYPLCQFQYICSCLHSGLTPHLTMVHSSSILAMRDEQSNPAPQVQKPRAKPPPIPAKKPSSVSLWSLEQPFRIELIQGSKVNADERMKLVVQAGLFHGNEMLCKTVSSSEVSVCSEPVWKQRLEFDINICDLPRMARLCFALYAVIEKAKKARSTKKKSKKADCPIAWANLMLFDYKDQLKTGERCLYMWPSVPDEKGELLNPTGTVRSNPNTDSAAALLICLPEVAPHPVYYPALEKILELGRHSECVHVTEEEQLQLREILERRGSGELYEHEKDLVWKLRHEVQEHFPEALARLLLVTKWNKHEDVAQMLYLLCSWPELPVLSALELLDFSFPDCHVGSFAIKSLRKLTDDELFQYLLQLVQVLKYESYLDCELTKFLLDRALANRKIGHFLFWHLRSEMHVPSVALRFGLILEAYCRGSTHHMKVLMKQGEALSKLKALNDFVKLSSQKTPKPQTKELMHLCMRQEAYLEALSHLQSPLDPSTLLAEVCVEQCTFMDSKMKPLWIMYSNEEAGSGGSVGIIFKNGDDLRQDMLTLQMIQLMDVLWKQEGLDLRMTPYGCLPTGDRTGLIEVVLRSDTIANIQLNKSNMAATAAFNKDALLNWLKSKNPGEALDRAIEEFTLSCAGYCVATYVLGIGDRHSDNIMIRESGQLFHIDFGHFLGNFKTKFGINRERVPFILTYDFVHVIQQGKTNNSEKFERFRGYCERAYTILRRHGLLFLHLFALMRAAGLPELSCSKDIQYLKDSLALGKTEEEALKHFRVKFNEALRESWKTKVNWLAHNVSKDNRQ
Chain of PI3Kdelta (P27986 whole entry partner, canonical isoform): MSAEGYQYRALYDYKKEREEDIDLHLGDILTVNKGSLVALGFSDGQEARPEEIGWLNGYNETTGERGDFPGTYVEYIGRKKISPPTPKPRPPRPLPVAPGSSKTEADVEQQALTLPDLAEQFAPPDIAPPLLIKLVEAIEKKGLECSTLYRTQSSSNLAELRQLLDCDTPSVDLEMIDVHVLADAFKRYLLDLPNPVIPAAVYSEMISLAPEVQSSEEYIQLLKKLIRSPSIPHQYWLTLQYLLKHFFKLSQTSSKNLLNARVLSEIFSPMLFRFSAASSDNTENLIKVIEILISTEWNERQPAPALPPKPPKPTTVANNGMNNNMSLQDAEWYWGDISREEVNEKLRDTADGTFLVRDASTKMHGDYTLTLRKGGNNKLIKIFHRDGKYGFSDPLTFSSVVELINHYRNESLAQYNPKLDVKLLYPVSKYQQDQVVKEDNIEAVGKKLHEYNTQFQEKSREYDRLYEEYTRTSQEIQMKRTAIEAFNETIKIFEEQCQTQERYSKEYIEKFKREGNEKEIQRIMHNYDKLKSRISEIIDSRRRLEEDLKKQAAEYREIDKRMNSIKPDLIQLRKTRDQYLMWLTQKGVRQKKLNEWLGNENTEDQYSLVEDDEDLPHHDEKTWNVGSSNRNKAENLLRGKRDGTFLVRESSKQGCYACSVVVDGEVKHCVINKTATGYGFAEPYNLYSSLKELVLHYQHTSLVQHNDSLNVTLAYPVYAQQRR

Chain of PI3Kalpha (P42336 whole entry, canonical isoform): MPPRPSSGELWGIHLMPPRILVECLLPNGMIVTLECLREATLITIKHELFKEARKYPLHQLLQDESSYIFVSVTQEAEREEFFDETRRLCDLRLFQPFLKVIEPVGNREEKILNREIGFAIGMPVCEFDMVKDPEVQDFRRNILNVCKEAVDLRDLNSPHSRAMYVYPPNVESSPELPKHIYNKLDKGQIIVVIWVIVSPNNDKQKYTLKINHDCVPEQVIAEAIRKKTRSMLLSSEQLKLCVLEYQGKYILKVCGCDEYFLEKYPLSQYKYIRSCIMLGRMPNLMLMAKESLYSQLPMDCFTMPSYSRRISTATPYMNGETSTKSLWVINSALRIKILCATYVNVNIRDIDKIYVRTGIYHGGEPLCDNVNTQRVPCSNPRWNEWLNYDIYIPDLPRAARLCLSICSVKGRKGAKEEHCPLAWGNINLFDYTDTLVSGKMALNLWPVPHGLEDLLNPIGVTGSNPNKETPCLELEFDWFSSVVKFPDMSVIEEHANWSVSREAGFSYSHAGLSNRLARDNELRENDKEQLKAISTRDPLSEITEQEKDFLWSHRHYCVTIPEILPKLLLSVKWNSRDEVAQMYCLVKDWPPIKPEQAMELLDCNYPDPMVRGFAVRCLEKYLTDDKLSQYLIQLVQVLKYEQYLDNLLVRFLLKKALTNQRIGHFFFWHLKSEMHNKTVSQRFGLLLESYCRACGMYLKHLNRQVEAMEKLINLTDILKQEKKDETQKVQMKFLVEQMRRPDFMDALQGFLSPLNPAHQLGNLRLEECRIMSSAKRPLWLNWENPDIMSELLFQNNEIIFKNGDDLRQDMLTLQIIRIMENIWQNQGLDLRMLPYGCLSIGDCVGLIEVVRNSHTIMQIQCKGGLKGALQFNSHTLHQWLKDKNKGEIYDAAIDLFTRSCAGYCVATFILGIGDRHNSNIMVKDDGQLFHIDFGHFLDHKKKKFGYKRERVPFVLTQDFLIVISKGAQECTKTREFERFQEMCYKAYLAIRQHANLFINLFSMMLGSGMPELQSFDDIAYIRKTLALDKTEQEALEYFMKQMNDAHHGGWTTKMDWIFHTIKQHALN
Chain of PI3Kalpha (P27986 whole entry partner, canonical isoform): as the sequence (P27986 whole entry partner, canonical isoform) above

Compound	Relative Selectivity versus PI3Kalpha (PI3Kalpha)	pIC50 (PI3Kdelta)
Cc1ncc(-c2nc3c(-c4ccc5c(c4)C4(CCCN4C(C)C)C(=O)N5)ncnc3n2C)cn1 (single isomer, unassigned) [Compound 3-13, (R or S)-1′-isopropyl-5-(9-methyl-8-(2-methylpyrimidin-5-yl)-9H-purin-6-yl)spiro[indoline-3,2′-pyrrolidin]-2-one]	>10	7.35
CCn1c(-c2cnc(C)nc2)nc2c(-c3ccc4c(c3)C3(CCCN3S(C)(=O)=O)C(=O)N4)ncnc21 (single isomer, unassigned) [Compound 3-20, (R or S)-5-(9-ethyl-8-(2-methylpyrimidin-5-yl)-9H-purin-6-yl)-1′-(methylsulfonyl)spiro[indoline-3,2′-pyrrolidin]-2-one]	>10	7.26
CCn1c(-c2cnc(C)nc2)nc2c(-c3ccc4c(c3)C3(CCCN3S(=O)(=O)C(F)(F)F)C(=O)N4)ncnc21 (single isomer, unassigned) [Compound 3-21, (R or S)-5-(9-ethyl-8-(2-methylpyrimidin-5-yl)-9H-purin-6-yl)-1′-((trifluoromethyl)sulfonyl)spiro[indoline-3,2′-pyrrolidin]-2-one]	2	7.16
CCn1c(-c2cnc(C)nc2)nc2c(-c3ccc4c(c3)C3(CCCN3S(C)(=O)=O)C(=O)N4C)ncnc21 (single isomer, unassigned) [Compound 3-24, (R or S)-5-(9-ethyl-8-(2-methylpyrimidin-5-yl)-9H-purin-6-yl)-1-methyl-1′-(methylsulfonyl)spiro[indoline-3,2′-pyrrolidin]-2-one]	>10	7.49
CCN1CCCC12C(=O)Nc1ccc(-c3ncnc4c3nc(-c3cnc(C)nc3)n4CC)cc12 (single isomer, unassigned) [Compound 3-26, (R or S)-1′-ethyl-5-(9-ethyl-8-(2-methylpyrimidin-5-yl)-9H-purin-6-yl)spiro[indoline-3,2′-pyrrolidin]-2-one]	>10	7.54
CCN1CCCC12C(=O)Nc1ccc(-c3ncnc4c3nc(-c3cnc(C)nc3)n4CC)cc12 (single isomer, unassigned) [Compound 3-27, (R or S)-1′-ethyl-5-(9-ethyl-8-(2-methylpyrimidin-5-yl)-9H-purin-6-yl)spiro[indoline-3,2′-pyrrolidin]-2-one]	>10	8.05
CCN1CCCC12C(=O)Nc1ccc(-c3ncnc4c3nc(-c3cnc(C)nc3)n4C)cc12 (single isomer, unassigned) [Compound 3-28, (R or S)-1′-ethyl-5-(9-methyl-8-(2-methylpyrimidin-5-yl)-9H-purin-6-yl)spiro[indoline-3,2′-pyrrolidin]-2-one]	>10	7.00
CCN1CCCC12C(=O)Nc1ccc(-c3ncnc4c3nc(-c3cnc(C)nc3)n4C)cc12 (single isomer, unassigned) [Compound 3-29, (R or S)-1′-ethyl-5-(9-methyl-8-(2-methylpyrimidin-5-yl)-9H-purin-6-yl)spiro[indoline-3,2′-pyrrolidin]-2-one]	>10	7.82

The next compounds have a higher pIC50 (PI3Kdelta) than those just listed; values first:

Relative Selectivity versus PI3Kalpha (PI3Kalpha)	pIC50 (PI3Kdelta)	Compound
>10	8.52	CCn1c(-c2cnc(C)nc2)nc2c(-c3ccc4c(c3)C3(CCCN3C(=O)C3CC3)C(=O)N4C(C)C)ncnc21 (single isomer, unassigned) [Compound 3-10, (R or S)-1′-(cyclopropanecarbonyl)-5-(9-ethyl-8-(2-methylpyrimidin-5-yl)-9H-purin-6-yl)-1-isopropylspiro[indoline-3,2′-pyrrolidin]-2-one]
>10	8.70	Cc1ncc(-c2nc3c(-c4ccc5c(c4)C4(CCCN4C(C)C)C(=O)N5)ncnc3n2C)cn1 (single isomer, unassigned) [Compound 3-14, (R or S)-1′-isopropyl-5-(9-methyl-8-(2-methylpyrimidin-5-yl)-9H-purin-6-yl)spiro[indoline-3,2′-pyrrolidin]-2-one]
>10	8.30	CCn1c(C(F)F)nc2c(-c3ccc4c(c3)C3(CCCN3C(=O)C3CC3)C(=O)N4)ncnc21 (single isomer, unassigned) [Compound 3-15, (R or S)-1′-(cyclopropanecarbonyl)-5-(8-(difluoromethyl)-9-ethyl-9H-purin-6-yl)spiro[indoline-3,2′-pyrrolidin]-2-one]
>10	8.70	Cc1ncc(-c2nc3c(-c4ccc5c(c4)C4(CCCN4C(=O)C4CC4)C(=O)N5CCN4CCOCC4)ncnc3n2C)cn1 (single isomer, unassigned) [Compound 3-16, (R or S)-1′-(cyclopropanecarbonyl)-5-(9-methyl-8-(2-methylpyrimidin-5-yl)-9H-purin-6-yl)-1-(2-morpholinoethyl)spiro[indoline-3,2′-pyrrolidin]-2-one]
>10	8.60	Cc1ncc(-c2nc3c(-c4ccc5c(c4)C4(CCCN4C(=O)C4CC4)C(=O)N5CC(C)(C)O)ncnc3n2C)cn1 (single isomer, unassigned) [Compound 3-17, (R or S)-1′-(cyclopropanecarbonyl)-1-(2-hydroxy-2-methylpropyl)-5-(9-methyl-8-(2-methylpyrimidin-5-yl)-9H-purin-6-yl)spiro[indoline-3,2′-pyrrolidin]-2-one]
>10	8.72	Cc1ncc(-c2nc3c(-c4ccc5c(c4)C4(CCCN4C(=O)C4CC4)C(=O)N5CCO)ncnc3n2C)cn1 (single isomer, unassigned) [Compound 3-18, (R or S)-1′-(cyclopropanecarbonyl)-1-(2-hydroxyethyl)-5-(9-methyl-8-(2-methylpyrimidin-5-yl)-9H-purin-6-yl)spiro[indoline-3,2′-pyrrolidin]-2-one]
>10	9.15	CCn1c(-c2cnc(C)nc2)nc2c(-c3ccc4c(c3)C3(CCCN3S(C)(=O)=O)C(=O)N4)ncnc21 (single isomer, unassigned) [Compound 3-19, (R or S)-5-(9-ethyl-8-(2-methylpyrimidin-5-yl)-9H-purin-6-yl)-1′-(methylsulfonyl)spiro[indoline-3,2′-pyrrolidin]-2-one]
>10	8.40	CCn1c(-c2cnc(C)nc2)nc2c(-c3ccc4c(c3)C3(CCCN3S(=O)(=O)C(F)(F)F)C(=O)N4)ncnc21 (single isomer, unassigned) [Compound 3-22, (R or S)-5-(9-ethyl-8-(2-methylpyrimidin-5-yl)-9H-purin-6-yl)-1′-((trifluoromethyl)sulfonyl)spiro[indoline-3,2′-pyrrolidine]-2-one]
>10	8.22	CCn1c(-c2cnc(C)nc2)nc2c(-c3ccc4c(c3)C3(CCCN3S(C)(=O)=O)C(=O)N4C)ncnc21 (single isomer, unassigned) [Compound 3-23, (R or S)-5-(9-ethyl-8-(2-methylpyrimidin-5-yl)-9H-purin-6-yl)-1-methyl-1′-(methylsulfonyl)spiro[indoline-3,2′-pyrrolidin]-2-one]
